Laboratory results: US8003684B2, “Crystal form and pharmaceutical compositions of (+)-R-zileuton” (Cornerstone Therapeutics, Inc., priority 2006, dated 2011)

Assay: Moisture sorption/desorption analysis
Assay type: physicochemical
Source text: The profiles show the change in weight of a sample containing Form I as the relative humidity (herein referred to as “RH”) of the environment is changed between 5% and 95% at a 10% RH interval. […] The vapor sorption/desorption profiles indicate that Form I is non-hygroscopic. Moisture sorption/desorption data were collected on a VTI SGA-100 Vapor Sorption Analyzer, calibrated using sodium chloride and polyvinylpyrrolidone as calibration standards. Sorption and desorption data were collected over a range of 5% to 95% relative humidity (RH) at 10% RH interval under a nitrogen purge. Samples were not dried prior to analysis. Equilibrium criteria used for analysis were less than 0.0100% weight change in 5 minutes, with a maximum equilibration time of 3 hours if the weight criterion was not met. Data were not corrected for the initial moisture content of the sample.

## C[C@H](c1cc2ccccc2s1)N(O)C(N)=O [Form I, (+)-R-zileuton]
RH below 40%, FIG. 3
  weight change in adsorption profile: essentially no weight change
RH between 5% and 95%
  hygroscopicity from vapor sorption/desorption profiles: non-hygroscopic
Steady gain from RH 40% until RH reaches 95%, 10% RH interval, FIG. 3
  weight gain in adsorption profile: approximately 2%
